Assay results: patent US20100160369A1, “S1P1 Agonists and Methods of Making And Using” (EXELIXIS, INC., priority 2008, published 2010)
Like-named read-outs stand apart in the source and are kept apart here.

Biological target: S1P1 (Homo sapiens, UniProt P21453)
Experiment: Tango β-arrestin Recruitment Assay in U2OS cells (Assay 2b)
Type: cell-based
Parameters: linker with TEV protease (N1a) cleavage site (C)
Text: For the Tango™ β-arrestin recruitment assay, the cytoplasmic C-terminus of S1P1 is tethered to the tTA transcriptional activator with a linker that contains a cleavage site for the N1a protease from tobacco etch virus (TEV protease). The C-terminus of the human β-arrestin2 protein is fused to TEV protease. Binding of an agonist recruits the β-arrestin-TEV fusion protein to the receptor resulting in cleavage of the linker and release of tTA to enter the nucleus and subsequently activate a tTA-dependent luciferase reporter gene.
Alternatively, U2OS cells expressing the reporter gene and S1P1 (Invitrogen) were added to the wells of a 384-well white opaque bottom assay plate (PerkinElmer) at […] per well. The cells were serum starved for 48 h in Freestyle medium (Invitrogen). Test compounds were tested at maximum concentrations of 1 μM for the agonist assay. Compounds were diluted in DMSO (10 concentration points, 3-fold each) and added to the assay plate at a 1% final DMSO concentration. The efficacy control was 1 μM S1P (Avanti). For each compound, there were duplicate assay plates and each assay plate had duplicate wells per concentration point. The plate was incubated overnight at 37° C. The GeneBLAzer β-lactamase assay reagent (Invitrogen) was added and the plates were incubated for an additional 2 h at room temperature. Fluorescence was measured using an EnVision plate reader (PerkinElmer, Waltham, Mass.) at an excitation wavelength of 409 nm and emission wavelengths of 460 nm and 530 nm. The emission intensity at each wavelength was background subtracted against wells containing medium only and the F460 nm/F530 nm ratio determined for each concentration of the test compounds. Percent activity was calculated as [(test compound ratio−DMSO ratio)/(positive control ratio−DMSO ratio)*100], where the positive control and DMSO ratios are from cells incubated with the efficacy control 1 μM S1P and 1% DMSO, respectively. The percent activities were plotted against compound concentration to determine EC50 using XLFit (IDBS).
Assay 1 is the CNG cAMP Assay as described in Biological Example 1. Assay 2a and 2b are the Tango™ β-arrestin Recruitment Assay in HEK293 and U2OS cells, respectively, as described in Biological Example 2. Assay 3a is the hS1P1R GTPγS Binding Assay as described in Biological Example 3. Assay 3b is the GTP-Eu Binding Assay as described in Biological Example 3. EC50's were measured unless otherwise noted. […] In the table, “nt” means the Compound was not tested and “no” means the compound was tested but had no measurable activity under the assay conditions employed.

[1] = Tango β-arrestin Recruitment Assay, read-out: Assay 2b EC50

S1P1, sequence (P21453 whole entry): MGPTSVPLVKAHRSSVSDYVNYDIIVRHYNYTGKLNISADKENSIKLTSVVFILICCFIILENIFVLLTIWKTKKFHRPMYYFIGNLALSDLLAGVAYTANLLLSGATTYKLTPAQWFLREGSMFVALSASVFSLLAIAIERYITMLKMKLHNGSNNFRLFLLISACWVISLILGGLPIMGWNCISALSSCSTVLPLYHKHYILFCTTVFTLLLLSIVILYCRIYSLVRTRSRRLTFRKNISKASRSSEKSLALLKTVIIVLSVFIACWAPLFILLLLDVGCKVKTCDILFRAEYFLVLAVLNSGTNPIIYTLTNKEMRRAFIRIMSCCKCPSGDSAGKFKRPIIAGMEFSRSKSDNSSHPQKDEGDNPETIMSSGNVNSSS
S1P1, sequence (P32121 whole entry partner): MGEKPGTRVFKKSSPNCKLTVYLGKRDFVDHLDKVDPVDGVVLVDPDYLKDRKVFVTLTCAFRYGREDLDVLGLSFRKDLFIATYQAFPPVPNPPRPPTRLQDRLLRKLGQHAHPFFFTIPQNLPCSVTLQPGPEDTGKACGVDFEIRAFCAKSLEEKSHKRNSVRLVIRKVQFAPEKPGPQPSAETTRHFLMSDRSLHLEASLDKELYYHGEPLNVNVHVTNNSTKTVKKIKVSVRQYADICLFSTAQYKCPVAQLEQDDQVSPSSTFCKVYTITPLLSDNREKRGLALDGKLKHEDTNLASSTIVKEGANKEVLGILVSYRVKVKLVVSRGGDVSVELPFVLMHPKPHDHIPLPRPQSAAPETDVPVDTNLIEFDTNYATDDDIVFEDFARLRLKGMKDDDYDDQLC

Row | EC50 [1] | Compound | other results
1 | ≤ 0.1 µM | NC(CO)COc1cc(Cl)c(-c2nnc(-c3cn4cc(I)ccc4n3)s2)cc1F (stereo not drawn) [Example 102, 2-amino-3-({5-chloro-2-fluoro-4-[5-(6-iodoimidazo[1,2-a]pyridin-2-yl)-1,3,4-thiadiazol-2-yl]phenyl}oxy)propan-1-ol] | –
2 | ≤ 0.1 µM | NC(CO)(CO)CCc1cc(Cl)c(-c2noc(-c3cn4cc(C(F)(F)F)cc(Cl)c4n3)n2)cc1F [Example 154, 2-amino-2-[2-(5-chloro-4-{5-[8-chloro-6-(trifluoromethyl)imidazo[1,2-a]pyridin-2-yl]-1,2,4-oxadiazol-3-yl}-2-fluorophenyl)ethyl]propane-1,3-diol] | –
3 | ≤ 0.1 µM | C[C@H](CO)Oc1cc(Cl)c(-c2noc(-c3cn4cc(C(F)(F)F)cc(Cl)c4n3)n2)cc1Cl [Example 155, (2R)-2-[(2,5-dichloro-4-{5-[8-chloro-6-(trifluoromethyl)imidazo[1,2-a]pyridin-2-yl]-1,2,4-oxadiazol-3-yl}phenyl)oxy]propan-1-ol] | –
4 | ≤ 0.1 µM | C[C@@H](CO)Oc1cc(Cl)c(-c2noc(-c3cn4cc(C(F)(F)F)cc(Cl)c4n3)n2)cc1Cl [Example 156, (2S)-2-[(2,5-dichloro-4-{5-[8-chloro-6-(trifluoromethyl)imidazo[1,2-a]pyridin-2-yl]-1,2,4-oxadiazol-3-yl}phenyl)oxy]propan-1-ol] | –
5 | ≤ 0.1 µM | CC(O)COc1cc(Cl)c(-c2nc(-c3cn4cc(C(F)(F)F)cc(Cl)c4n3)no2)cc1Cl (stereo not drawn) [Example 178, 1-[(2,5-dichloro-4-{3-[8-chloro-6-(trifluoromethyl)imidazo[1,2-a]pyridin-2-yl]-1,2,4-oxadiazol-5-yl}phenyl)oxy]propan-2-ol] | –
6 | 0.1 to 0.5 µM | CC(O)COc1cc(Cl)c(-c2nnc(-c3cn4cc(C(F)(F)F)cc(Cl)c4n3)o2)cc1F (stereo not drawn) [Example 179, 1-[(5-chloro-4-{5-[8-chloro-6-(trifluoromethyl)imidazo[1,2-a]pyridin-2-yl]-1,3,4-oxadiazol-2-yl}-2-fluorophenyl)oxy]propan-2-ol] | –
7 | ≤ 0.1 µM | CC(O)COc1cc(Cl)c(-c2nc(-c3cn4cc(C(F)(F)F)cc(Cl)c4n3)no2)cc1F (stereo not drawn) [Example 184, 1-[(5-chloro-4-{3-[8-chloro-6-(trifluoromethyl)imidazo[1,2-a]pyridin-2-yl]-1,2,4-oxadiazol-5-yl}-2-fluorophenyl)oxy]propan-2-ol] | –
8 | ≤ 0.1 µM | CC(O)CCc1cc(Cl)c(-c2noc(-c3cn4cc(C(F)(F)F)cc(Cl)c4n3)n2)cc1Cl (stereo not drawn) [Example 185, 4-(2,5-dichloro-4-{5-[8-chloro-6-(trifluoromethyl)imidazo[1,2-a]pyridin-2-yl]-1,2,4-oxadiazol-3-yl}phenyl)butan-2-ol] | –
9 | ≤ 0.1 µM | N[C@@H](CO)COc1cc(Cl)c(-c2nnc(-c3cn4cc(C(F)(F)F)cc(Cl)c4n3)s2)cc1Cl [Example 201, (2S)-2-amino-3-[(2,5-dichloro-4-{5-[8-chloro-6-(trifluoromethyl)imidazo[1,2-a]pyridin-2-yl]-1,3,4-thiadiazol-2-yl}phenyl)oxy]propan-1-ol] | –
10 | – | NC(CO)COc1cc(Cl)c(-c2nnc(-c3cn4cc(C(F)(F)F)cc(Cl)c4n3)o2)cc1Cl (stereo not drawn) [Example 202, 2-amino-3-[(2,5-dichloro-4-{5-[8-chloro-6-(trifluoromethyl)imidazo[1,2-a]pyridin-2-yl]-1,3,4-oxadiazol-2-yl}phenyl)oxy]propan-1-ol] | EC50 (Tango β-arrestin, footnote 1: Relative EC50 was measured, read-out: Assay 2b Relative EC50): 0.1 to 0.5 µM
11 | ≤ 0.1 µM | O=C(O)C1CC1c1cc(Cl)c(-c2noc(-c3cn4cc(C(F)(F)F)cc(Cl)c4n3)n2)cc1Cl (stereo not drawn) [Example 211, 2-(2,5-dichloro-4-{5-[8-chloro-6-(trifluoromethyl)imidazo[1,2-a]pyridin-2-yl]-1,2,4-oxadiazol-3-yl}phenyl)cyclopropanecarboxylic acid] | –
12 | ≤ 0.1 µM | NC(CO)COc1cc(Cl)c(-c2nnc(-c3cn4cc(C(F)(F)F)cc(Cl)c4n3)s2)cc1Cl (stereo not drawn) [Example 220, 2-amino-3-[(2,5-dichloro-4-{5-[8-chloro-6-(trifluoromethyl)imidazo[1,2-a]pyridin-2-yl]-1,3,4-thiadiazol-2-yl}phenyl)oxy]propan-1-ol] | –
13 | ≤ 0.1 µM | CC(CCc1cc(Cl)c(-c2noc(-c3cn4cc(C(F)(F)F)cc(Cl)c4n3)n2)cc1Cl)OP(=O)(O)O (stereo not drawn) [Example 221, 3-(2,5-dichloro-4-{5-[8-chloro-6-(trifluoromethyl)imidazo[1,2-a]pyridin-2-yl]-1,2,4-oxadiazol-3-yl}phenyl)-1-methylpropyl dihydrogen phosphate] | –
14 | ≤ 0.1 µM | NC(CO)COc1cc(Cl)c(-c2nnc(-c3cn4cc(C(F)(F)F)cc(Cl)c4n3)o2)cc1F (stereo not drawn) [Example 222, 2-amino-3-[(5-chloro-4-{5-[8-chloro-6-(trifluoromethyl)imidazo[1,2-a]pyridin-2-yl]-1,3,4-oxadiazol-2-yl}-2-fluorophenyl)oxy]propan-1-ol] | –
15 | ≤ 0.1 µM | OC(COc1cc(Cl)c(-c2noc(-c3cn4cc(C(F)(F)F)cc(Br)c4n3)n2)cc1Cl)C(F)(F)F (stereo not drawn) [Example 294, 3-[(4-{5-[8-bromo-6-(trifluoromethyl)imidazo[1,2-a]pyridin-2-yl]-1,2,4-oxadiazol-3-yl}-2,5-dichlorophenyl)oxy]-1,1,1-trifluoropropan-2-ol] | –
16 | ≤ 0.1 µM | O=C(O)CCc1c(F)cc(-c2noc(-c3cn4cc(C(F)(F)F)cc(Cl)c4n3)n2)cc1Cl [Example 296, 3-(2-chloro-4-{5-[8-chloro-6-(trifluoromethyl)imidazo[1,2-a]pyridin-2-yl]-1,2,4-oxadiazol-3-yl}-6-fluorophenyl)propanoic acid] | –
17 | ≤ 0.1 µM | Cc1cc(CCC(=O)O)c(Cl)cc1-c1nc(-c2cn3cc(I)cc(Cl)c3n2)no1 [Example 297, 3-{2-chloro-4-[3-(8-chloro-6-iodoimidazo[1,2-a]pyridin-2-yl)-1,2,4-oxadiazol-5-yl]-5-methylphenyl}propanoic acid] | –
18 | – | CC(N)COc1cc(Cl)c(-c2nnc(-c3cn4cc(C(F)(F)F)cc(Cl)c4n3)s2)cc1F (stereo not drawn) [Example 298, 1-[(5-chloro-4-{5-[8-chloro-6-(trifluoromethyl)imidazo[1,2-a]pyridin-2-yl]-1,3,4-thiadiazol-2-yl}-2-fluorophenyl)pxy]propan-2-amine] | EC50 (Tango β-arrestin Recruitment Assay, footnote 1: Relative EC50 was measured, read-out: Assay 2b relative EC50): 0.1 to 0.5 µM
19 | 0.1 to 0.5 µM | O=C(O)C1CC1c1cc(Cl)c(-c2nc(-c3cn4cc(C(F)(F)F)cc(Cl)c4n3)no2)cc1Cl (stereo not drawn) [Example 299, 2-(2,5-dichloro-4-{3-[8-chloro-6-(trifluoromethyl)imidazo[1,2-a]pyridin-2-yl]-1,2,4-oxadiazol-5-yl}phenyl)cyclopropanecarboxylic acid] | –
20 | ≤ 0.1 µM | CC1(C)OC[C@@H](COc2cc(Cl)c(-c3noc(-c4cn5cc(C(F)(F)F)cc(Cl)c5n4)n3)cc2Cl)O1 [Example 304, 8-chloro-2-{3-[2,5-dichloro-4-({[(4R)-2,2-dimethyl-1,3-dioxolan-4-yl]methyl}oxy)phenyl]-1,2,4-oxadiazol-5-yl}-6-(trifluoromethyl)imidazo[1,2-a]pyridine] | –
21 | ≤ 0.1 µM | CC(=O)COc1cc(Cl)c(-c2noc(-c3cn4cc(C(F)(F)F)cc(Br)c4n3)n2)cc1Cl [Example 305, 1-[(4-{5-[8-bromo-6-(trifluoromethyl)imidazo[1,2-a]pyridin-2-yl]-1,2,4-oxadiazol-3-yl}-2,5-dichlorophenyl)oxy]propan-2-one] | –
22 | ≤ 0.1 µM | O=C(O)C1CC1c1cc(Cl)c(-c2noc(-c3cn4cc(C(F)(F)F)cc(Br)c4n3)n2)cc1Cl (stereo not drawn) [Example 306, 2-(4-{5-[8-bromo-6-(trifluoromethyl)imidazo[1,2-a]pyridin-2-yl]-1,2,4-oxadiazol-3-yl}-2,5-dichlorophenyl)cyclopropanecarboxylic acid] | –
23 | ≤ 0.1 µM | OCC(CO)Oc1cc(Cl)c(-c2noc(-c3cn4cc(C(F)(F)F)cc(Cl)c4n3)n2)cc1Cl [Example 307, 2-[(2,5-dichloro-4-{5-[8-chloro-6-(trifluoromethyl)imidazo[1,2-a]pyridin-2-yl]-1,2,4-oxadiazol-3-yl}phenyl)oxy]propane-1,3-diol] | –
24 | ≤ 0.1 µM | OCCNc1cc(Cl)c(-c2noc(-c3cn4cc(C(F)(F)F)cc(Cl)c4n3)n2)cc1F [Example 308, 2-[(5-chloro-4-{5-[8-chloro-6-(trifluoromethyl)imidazo[1,2-a]pyridin-2-yl]-1,2,4-oxadiazol-3-yl}-2-fluorophenyl)amino]ethanol] | –
